Experimental data taken from patent publication US6534099B1, “Pesticidal compositions containing menthyl salicylate” (Ecosmart Technologies, Inc., priority 1993, dated 2003).

Tests used:
German cockroaches = experiment: Walk-across continuous exposure in treated jars (Study A and B); assay type: in vivo
Description: Experiment 1: To determine the lethal activity of menthyl salicylate against cockroaches. Menthyl salicylate was tested at 250 mg/jar against German cockroaches. Two replicates were used in this study. Three adult German cockroaches were used per replicate. Continuous exposure was performed with “walk-across”. All controls and treated roaches were under continuous observations for 6 hrs.
Experiment 1. To determine whether menthyl salicylate acts as a synergist to eugenol and /or PEP blend. This experiment was also conducted against German cockroaches as described in Study A. Several blends of Eugenol/PEP were tested.

harvester = experiment: Open glass petri dish exposure (Study E); assay type: in vivo, harvester ants; settings: mixed with soybean oil
Text: (§1) To address whether the efficacy of PEP will be increased with menthyl salicylate/soybean oil against harvester and black ants.
(§2) glass petri dishes 100 mm were used in this study
(§3) all treated dishes kept open during the time of exposure

black ants = experiment: Open glass petri dish exposure (Study E); assay type: in vivo; settings: mixed with soybean oil
Text: as §1, §2, §3

## CC1CCC(C(C)C)C(OC(=O)c2ccccc2O)C1 (stereo not drawn) [Menthyl salicylate, 2-hydroxybenzoic acid 5-methyl-2-(1-methylethyl)cyclohexyl ester]
German cockroaches; 250 mg/jar
  killing agent (conclusion in words): good killing agent
German cockroaches; 250 mg/jar, 24 hr after continuous exposure
  mortality (M): 100%
German cockroaches; menthyl salicylate 250 mg/jar, 20 min after exposure
  KD (knock-down): 30%
German cockroaches; menthyl salicylate at 4-250 mg
  synergy with eugenol/PEP (in words): synergizes the efficacy of eugenol/PEP
harvester
  time to 100% M: ≤ 11 min
Black ants
  time to 100% M: ≤ 40 min
